Test results: ChEMBL document CHEMBL2375280, “Synthesis of novel 1,3,4-trisubstituted pyrazoles as anti-inflammatory and analgesic agents” (Eur J Med Chem, 2013)

How the values were obtained:
Homo sapiens = species on record: Homo sapiens; assay: Selectivity ratio for COX1 (unknown origin) over COX2 (unknown origin)
Rattus norvegicus [1] = assay: Antiinflammatory activity in Wistar albino rat assessed as inhibition of carrageenan-induced paw edema at 0.08 mmol/kg, ip administered 1 hr prior to carrageenan challenge measured at 3 hrs by plethysmometric analysis relative to control; format: functional
Mus musculus = assay: Analgesic activity in albino mouse assessed as protection against p-benzoquinone-induced writhing at 0.32 mmol/kg, ip administered 1 hr prior to p-benzoquinone challenge measured for 30 mins relative to control; format: functional
Rattus norvegicus [2] = assay: Antiinflammatory activity in ip dosed Wistar albino rat assessed as inhibition of carrageenan-induced paw edema administered 1 hr prior to carrageenan challenge measured at 3 hrs by plethysmometric analysis; format: functional, organism-based
Rattus norvegicus [3] = assay: Antiinflammatory activity in Wistar albino rat assessed as inhibition of carrageenan-induced paw edema at 0.32 mmol/kg, ip administered 1 hr prior to carrageenan challenge measured at 3 hrs by plethysmometric analysis relative to control; format: functional
Rattus norvegicus [4] = assay: Antiinflammatory activity in Wistar albino rat assessed as inhibition of carrageenan-induced paw edema at 0.32 mmol/kg, ip administered 1 hr prior to carrageenan challenge measured at 2 hrs by plethysmometric analysis relative to control; format: functional
Rattus norvegicus [5] = assay: Ulcerogenic effect in albino rat stomach assessed as ulcer index at 0.32 mmol/kg, po administered for 3 days measured 2 hrs post last dose; format: toxicity, organism-based; settings: in vivo
Rattus norvegicus [6] = assay: Antiinflammatory activity in Wistar albino rat assessed as inhibition of carrageenan-induced paw edema at 0.16 mmol/kg, ip administered 1 hr prior to carrageenan challenge measured at 3 hrs by plethysmometric analysis relative to control; format: functional
[7] = Acute toxicity in ip dosed mouse assessed as mortality measured for 24 hrs; format: organism-based; settings: in vivo

| Compound | Activity (Mus musculus) [%] | inhibition in vivo at 320 µmol/kg (Rattus norvegicus [3]) [%] | inhibition in vivo at 320 µmol/kg (Rattus norvegicus [4]) [%] | further results |
| --- | --- | --- | --- | --- |
| Cc1ccc(-c2nn(-c3ccc(S(N)(=O)=O)cc3)cc2-c2cc(-c3ccc(Cl)cc3)[nH]c2-c2ccc(F)cc2)cc1 | 16.67 | 66.7 | 75.4 | Selectivity ratio (Homo sapiens): 0.87; inhibition in vivo at 80 µmol/kg (Rattus norvegicus [1]): 14%; IC50 (Rattus norvegicus [2]): 0.21 mmol/kg; UI (Rattus norvegicus [5]): 15; inhibition in vivo at 160 µmol/kg (Rattus norvegicus [6]): 43.6%; LD50 at 24 h [7]: 3250 µmol/kg |
| Cc1ccc(-c2nn(-c3ccc(Cl)cc3)cc2/C=C\C(=O)c2ccc(Cl)cc2)cc1 |  | 61.4 | 49.2 |  |
| CCCCC1C(=O)N(c2ccccc2)N(c2ccccc2)C1=O [PHENYLBUTAZONE] | 33.33 | 70.5 | 57.3 | inhibition in vivo at 80 µmol/kg (Rattus norvegicus [1]): 20%; IC50 (Rattus norvegicus [2]): 0.22 mmol/kg; UI (Rattus norvegicus [5]): 30.2; inhibition in vivo at 160 µmol/kg (Rattus norvegicus [6]): 42.1% |
| Cc1ccc(-c2nn(-c3ccc(Cl)cc3)cc2-c2cc(-c3ccc(Cl)cc3)[nH]c2-c2ccc(F)cc2)cc1 | 33.33 | 21 | 38.3 | UI (Rattus norvegicus [5]): 13 |
| COc1ccc(/N=C\c2cn(-c3ccc(S(N)(=O)=O)cc3)nc2-c2ccc(OC)cc2)cc1 | 33.33 | 68.5 | 65.8 | UI (Rattus norvegicus [5]): 16.4; LD50 at 24 h [7]: 3250 µmol/kg |
| Cc1ccc(-c2nn(-c3ccc(Cl)cc3)cc2/C=N\c2ccc(Cl)cc2)cc1 |  | 49.2 | 48.3 |  |
| COc1ccc(-c2nn(-c3ccc(S(N)(=O)=O)cc3)cc2/C=N\c2ccccc2)cc1 |  | 55.4 | 38.5 |  |
| Cc1ccc(-c2nn(-c3ccc(S(N)(=O)=O)cc3)cc2/C=N\c2ccc(Cl)cc2)cc1 | 33.33 | 78.4 | 69.1 | UI (Rattus norvegicus [5]): 5.8 |
| COc1ccc(-c2nn(-c3ccc(S(N)(=O)=O)cc3)cc2-c2cc(-c3ccc(Cl)cc3)[nH]c2-c2ccc(OC)cc2)cc1 |  | 28.6 | 48.1 |  |
| COc1ccc(-c2nn(-c3ccc(S(N)(=O)=O)cc3)cc2/C=N\c2ccc(Cl)cc2)cc1 | 50 | 62.8 | 63 | LD50 at 24 h [7]: 2440 µmol/kg |
| COc1ccc(-c2nn(-c3ccc(S(N)(=O)=O)cc3)cc2-c2cc(-c3ccc(Cl)cc3)[nH]c2-c2ccc(F)cc2)cc1 |  | 55.9 | 55.7 |  |
| COc1ccc(-c2nn(-c3ccc(Cl)cc3)cc2/C=C\C(=O)c2ccc(Cl)cc2)cc1 |  | 66.4 | 53.7 |  |
| Cc1ccc(-c2nn(-c3ccc(S(N)(=O)=O)cc3)cc2/C=N\c2ccccc2)cc1 |  | 57.1 | 58.1 |  |
| COc1ccc2c(c1)c(CC(=O)O)c(C)n2C(=O)c1ccc(Cl)cc1 |  |  |  | Selectivity ratio (Homo sapiens): 3.94 |
| COc1ccc(C(=O)C(CC(=O)c2ccc(Cl)cc2)c2cn(-c3ccc(S(N)(=O)=O)cc3)nc2-c2ccc(C)cc2)cc1 (centres undefined) | 50 | 61.1 | 53.8 |  |
| COc1ccc(-c2nn(-c3ccc(Cl)cc3)cc2C=O)cc1 | 33.33 | 57.6 | 63.1 |  |
| COc1ccc(C(=O)C(CC(=O)c2ccc(Cl)cc2)c2cn(-c3ccc(Cl)cc3)nc2-c2ccc(C)cc2)cc1 (centres undefined) |  | 23.9 | 16.1 |  |
| Cc1ccc(-c2nn(-c3ccc(S(N)(=O)=O)cc3)cc2/C=C\C(=O)c2ccc(Cl)cc2)cc1 |  | 47.6 | 53.3 |  |
| COc1ccc(C(=O)C(CC(=O)c2ccc(Cl)cc2)c2cn(-c3ccc(S(N)(=O)=O)cc3)nc2-c2ccc(OC)cc2)cc1 (centres undefined) |  | 22.5 | 30.8 |  |

| Compound | Activity (Mus musculus) [%] | inhibition in vivo at 320 µmol/kg (Rattus norvegicus [3]) [%] | inhibition in vivo at 320 µmol/kg (Rattus norvegicus [4]) [%] | further results |
| --- | --- | --- | --- | --- |
| COc1ccc(-c2nn(-c3ccc(Cl)cc3)cc2-c2cc(-c3ccc(Cl)cc3)[nH]c2-c2ccc(F)cc2)cc1 | 33.33 | 61.9 | 53.7 | UI (Rattus norvegicus [5]): 12 |
| COc1ccc(-c2nn(-c3ccc(Cl)cc3)cc2-c2cc(-c3ccc(Cl)cc3)[nH]c2-c2ccc(OC)cc2)cc1 |  | 20.7 | 10.5 |  |
| COc1ccc(-c2nn(-c3ccc(Cl)cc3)cc2C(CC(=O)c2ccc(Cl)cc2)C(=O)c2ccc(F)cc2)cc1 (centres undefined) |  | 37.8 | 19.8 |  |
| Cc1ccc(-c2nn(-c3ccc(S(N)(=O)=O)cc3)cc2C(CC(=O)c2ccc(Cl)cc2)C(=O)c2ccc(F)cc2)cc1 (centres undefined) | 50 | 56.2 | 53.5 |  |
| COc1ccc(/N=C\c2cn(-c3ccc(Cl)cc3)nc2-c2ccc(OC)cc2)cc1 | 66.67 | 82.2 | 69.2 | Selectivity ratio (Homo sapiens): 1.17; inhibition in vivo at 80 µmol/kg (Rattus norvegicus [1]): 37.5%; IC50 (Rattus norvegicus [2]): 0.2 mmol/kg; UI (Rattus norvegicus [5]): 14.32; inhibition in vivo at 160 µmol/kg (Rattus norvegicus [6]): 43%; LD50 at 24 h [7]: 3250 µmol/kg |
| Cc1ccc(-c2nn(-c3ccc(Cl)cc3)cc2/C=N\c2ccccc2)cc1 |  | 49.3 | 40.1 |  |
| COc1ccc(C(=O)C(CC(=O)c2ccc(Cl)cc2)c2cn(-c3ccc(Cl)cc3)nc2-c2ccc(OC)cc2)cc1 (centres undefined) |  | 9.61 | 0 |  |
| COc1ccc(-c2nn(-c3ccc(S(N)(=O)=O)cc3)cc2C=O)cc1 | 16.67 | 81.5 | 83 | UI (Rattus norvegicus [5]): 11.2 |
| COc1ccc(-c2[nH]c(-c3ccc(Cl)cc3)cc2-c2cn(-c3ccc(Cl)cc3)nc2-c2ccc(C)cc2)cc1 |  | 21.3 | 9.38 |  |
| COc1ccc(-c2nn(-c3ccc(Cl)cc3)cc2/C=N\c2ccccc2)cc1 | 16.67 | 72.6 | 57.2 |  |
| COc1ccc(-c2[nH]c(-c3ccc(Cl)cc3)cc2-c2cn(-c3ccc(S(N)(=O)=O)cc3)nc2-c2ccc(C)cc2)cc1 | 50 | 34.2 | 49.7 |  |
| COc1ccc(/N=C\c2cn(-c3ccc(S(N)(=O)=O)cc3)nc2-c2ccc(C)cc2)cc1 |  | 56.2 | 48.8 |  |
| COc1ccc(-c2nn(-c3ccc(S(N)(=O)=O)cc3)cc2C(CC(=O)c2ccc(Cl)cc2)C(=O)c2ccc(F)cc2)cc1 (centres undefined) | 33.33 | 68.1 | 72.2 |  |
| COc1ccc(/N=C\c2cn(-c3ccc(Cl)cc3)nc2-c2ccc(C)cc2)cc1 | 16.67 | 48.9 | 62 |  |
| Cc1ccc(-c2nn(-c3ccc(Cl)cc3)cc2C=O)cc1 |  | 56 | 49.9 |  |
| Cc1ccc(-c2nn(-c3ccc(Cl)cc3)cc2C(CC(=O)c2ccc(Cl)cc2)C(=O)c2ccc(F)cc2)cc1 (centres undefined) |  | 19.4 | 25.9 |  |
| COc1ccc(-c2nn(-c3ccc(S(N)(=O)=O)cc3)cc2/C=C\C(=O)c2ccc(Cl)cc2)cc1 |  | 56 | 55.6 |  |
| Cc1ccc(-c2nn(-c3ccc(S(N)(=O)=O)cc3)cc2C=O)cc1 | 16.67 | 68.2 | 58.4 | UI (Rattus norvegicus [5]): 9.6 |
| COc1ccc(-c2nn(-c3ccc(Cl)cc3)cc2/C=N\c2ccc(Cl)cc2)cc1 | 33.33 | 72.6 | 69.6 | Selectivity ratio (Homo sapiens): 0.95; UI (Rattus norvegicus [5]): 5.4 |
